Data on eight compounds can be found in ChEMBL document CHEMBL1137149, “Bile acid conjugates of a nonsteroidal glucocorticoid receptor modulator” (Bioorg Med Chem Lett, 2004).

Assay [1] addresses T1, Glucocorticoid receptor (Homo sapiens, UniProt P04150).
T1 sequence (P04150 whole entry): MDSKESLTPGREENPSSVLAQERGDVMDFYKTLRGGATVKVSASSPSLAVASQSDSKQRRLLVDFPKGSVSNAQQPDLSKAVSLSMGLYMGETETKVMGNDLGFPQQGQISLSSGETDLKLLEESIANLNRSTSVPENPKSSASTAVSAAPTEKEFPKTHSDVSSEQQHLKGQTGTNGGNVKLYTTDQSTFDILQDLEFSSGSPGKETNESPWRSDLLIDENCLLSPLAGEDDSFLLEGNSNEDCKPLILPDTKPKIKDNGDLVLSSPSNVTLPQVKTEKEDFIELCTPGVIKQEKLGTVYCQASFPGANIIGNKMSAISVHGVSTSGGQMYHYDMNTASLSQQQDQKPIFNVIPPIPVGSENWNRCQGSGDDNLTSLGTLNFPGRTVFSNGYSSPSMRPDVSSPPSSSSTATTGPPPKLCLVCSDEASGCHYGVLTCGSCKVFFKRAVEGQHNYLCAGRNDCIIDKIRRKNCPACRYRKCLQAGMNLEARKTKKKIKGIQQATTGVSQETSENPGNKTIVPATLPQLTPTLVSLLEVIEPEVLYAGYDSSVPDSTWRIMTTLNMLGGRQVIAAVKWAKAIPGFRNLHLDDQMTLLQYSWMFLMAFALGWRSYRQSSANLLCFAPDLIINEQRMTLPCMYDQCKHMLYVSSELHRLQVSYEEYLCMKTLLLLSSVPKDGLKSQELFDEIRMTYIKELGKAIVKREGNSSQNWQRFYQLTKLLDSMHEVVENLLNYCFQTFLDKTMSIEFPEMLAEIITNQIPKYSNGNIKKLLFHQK

Assay [2] concerns the target T1, Glucocorticoid receptor. In kind it is functional.
Description: Inhibition of glucocorticoid receptor Dexamethasone response in reporter gene assay
Assay [3] addresses T2, Glucocorticoid receptor (Rattus norvegicus, UniProt P06536).
T2 sequence (P06536 whole entry): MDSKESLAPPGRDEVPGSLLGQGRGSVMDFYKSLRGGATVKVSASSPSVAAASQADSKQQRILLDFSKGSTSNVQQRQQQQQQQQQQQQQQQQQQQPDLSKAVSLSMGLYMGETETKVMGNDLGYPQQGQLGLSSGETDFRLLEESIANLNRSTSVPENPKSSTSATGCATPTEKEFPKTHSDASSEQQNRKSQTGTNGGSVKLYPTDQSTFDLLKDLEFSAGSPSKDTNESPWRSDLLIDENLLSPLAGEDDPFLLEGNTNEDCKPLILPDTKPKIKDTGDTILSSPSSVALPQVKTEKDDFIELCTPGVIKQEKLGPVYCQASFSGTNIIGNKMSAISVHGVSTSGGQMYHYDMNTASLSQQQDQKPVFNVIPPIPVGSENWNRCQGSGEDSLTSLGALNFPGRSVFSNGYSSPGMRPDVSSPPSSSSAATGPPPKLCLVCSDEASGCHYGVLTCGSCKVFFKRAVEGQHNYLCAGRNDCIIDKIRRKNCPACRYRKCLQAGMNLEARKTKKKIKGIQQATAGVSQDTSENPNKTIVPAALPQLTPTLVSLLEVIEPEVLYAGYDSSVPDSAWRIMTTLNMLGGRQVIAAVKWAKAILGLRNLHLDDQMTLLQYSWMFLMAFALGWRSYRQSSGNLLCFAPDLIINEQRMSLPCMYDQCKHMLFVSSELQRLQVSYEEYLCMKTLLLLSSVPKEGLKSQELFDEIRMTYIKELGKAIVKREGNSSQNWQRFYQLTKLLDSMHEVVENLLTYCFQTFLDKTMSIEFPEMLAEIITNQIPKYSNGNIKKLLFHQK
In kind it is functional, cell-based. Particulars: hepatocyte; call rule not given here.

Assay [4] concerns the target T3, Hepatic sodium/bile acid cotransporter (Rattus norvegicus, UniProt P26435).
T3 sequence (P26435 whole entry): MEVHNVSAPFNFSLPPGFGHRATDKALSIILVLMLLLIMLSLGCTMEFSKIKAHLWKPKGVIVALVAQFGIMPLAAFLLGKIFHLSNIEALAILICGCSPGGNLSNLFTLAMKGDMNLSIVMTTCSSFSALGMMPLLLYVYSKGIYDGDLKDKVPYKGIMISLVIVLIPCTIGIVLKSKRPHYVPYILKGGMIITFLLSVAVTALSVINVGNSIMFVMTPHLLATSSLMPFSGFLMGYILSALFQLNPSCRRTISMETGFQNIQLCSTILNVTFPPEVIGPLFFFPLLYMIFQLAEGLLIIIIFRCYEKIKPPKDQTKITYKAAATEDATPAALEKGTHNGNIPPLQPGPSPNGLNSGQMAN

Molecules are shown by their SMILES.

The compound `Cc1c(NS(C)(=O)=O)cccc1N(Cc1ccc(CCCC(=O)NCCO[C@@H]2CC[C@]3(C)[C@H](C2)C[C@H](O)[C@@H]2[C@@H]3C[C@@H](O)[C@]3(C)[C@H]2CC[C@H]3[C@@H](C)CCC(=O)O)cc1)Cc1ccc(Oc2ccccc2)cc1` showed a concentration for half-maximal inhibition (IC50) on Glucocorticoid receptor [1] of 260 nM.
The same measure, in the same setting: for `Cc1c(NS(C)(=O)=O)cccc1N(Cc1ccccc1)Cc1ccc(Oc2ccc(CCCC(=O)NCCO[C@H]3CC[C@@]4(C)[C@@H](C3)C[C@@H](O)[C@@H]3[C@@H]4C[C@H](O)[C@]4(C)[C@@H]([C@H](C)CCC(=O)O)CC[C@@H]34)cc2)cc1` the value was 50 nM.
As for `Cc1c(NS(C)(=O)=O)cccc1N(Cc1ccccc1)Cc1ccc(Oc2cccc(CCCC(=O)NCCO[C@@H]3CC[C@]4(C)[C@H](C3)C[C@H](O)[C@@H]3[C@@H]4C[C@@H](O)[C@]4(C)[C@H]3CC[C@H]4[C@@H](C)CCC(=O)O)c2)cc1`, the results for the 50% inhibitory concentration (IC50) at Glucocorticoid receptor [1] and on Glucocorticoid receptor [2] were 62 nM and 390 nM, respectively.
Consider `Cc1c(NS(C)(=O)=O)cccc1N(Cc1ccccc1)Cc1ccc(Oc2ccc(CCC(=O)NCCO[C@@H]3CC[C@]4(C)[C@H](C3)C[C@H](O)[C@@H]3[C@@H]4C[C@@H](O)[C@]4(C)[C@H]3CC[C@H]4[C@@H](C)CCC(=O)O)cc2)cc1`, for which the half-maximal inhibitory concentration (IC50) on Glucocorticoid receptor [1] was 17 nM; at Glucocorticoid receptor [3], “Not Active”; against Glucocorticoid receptor [2] it was 450 nM; in assay [4], 4 nM.
`Cc1c(NS(C)(=O)=O)cccc1N(Cc1ccc(Oc2ccc(CCC(=O)NCCO[C@@H]3CC[C@]4(C)[C@H](C3)C[C@H](O)[C@@H]3[C@@H]4C[C@@H](O)[C@]4(C)[C@H]3CC[C@H]4[C@@H](C)CCC(=O)O)cc2)cc1)Cc1ccc(F)cc1F` returned an IC50 on Glucocorticoid receptor [1] of 270 nM.
As for `Cc1c(NS(C)(=O)=O)cccc1N(Cc1ccccc1)Cc1ccc(Oc2cccc(OCC(=O)NCCO[C@H]3CC[C@@]4(C)[C@@H](C3)C[C@@H](O)[C@@H]3[C@@H]4C[C@H](O)[C@]4(C)[C@@H]([C@H](C)CCC(=O)O)CC[C@@H]34)c2)cc1`, the concentration for half-maximal inhibition (IC50) on Glucocorticoid receptor [1] is 57 nM; against Glucocorticoid receptor [2], 590 nM.
On to `Cc1c(NS(C)(=O)=O)cccc1N(Cc1ccc(Oc2ccccc2)cc1)Cc1cccc(CCCC(=O)NCCO[C@H]2CC[C@@]3(C)[C@@H](C2)C[C@@H](O)[C@@H]2[C@@H]3C[C@H](O)[C@]3(C)[C@@H]([C@H](C)CCC(=O)O)CC[C@@H]23)c1`, for which, at Glucocorticoid receptor [1], half-maximal inhibition (IC50) was put at 93 nM.
For `Cc1c(NS(C)(=O)=O)cccc1N(Cc1ccccc1)Cc1ccc(CCC(=O)NCCO[C@H]2CC[C@@]3(C)[C@@H](C2)C[C@@H](O)[C@@H]2[C@@H]3C[C@H](O)[C@]3(C)[C@@H]([C@H](C)CCC(=O)O)CC[C@@H]23)cc1`, the half-inhibitory concentration (IC50) is 560 nM against Glucocorticoid receptor [1] and 310 nM on Glucocorticoid receptor [2].

For orientation: IC50 means the concentration at which inhibition is half-maximal.
